Values after ≈ are worked out from the molar mass of the structure shown.
How the values were obtained:
Format in all cases: functional
Escherichia coli [1] = experiment: Antimicrobial activity against Escherichia coli NO8-1503 harboring blaTEM-168 gene by broth microdilution method
Escherichia coli [2] = experiment: Antimicrobial activity against Escherichia coli NO8-1503 harboring blaTEM-168 gene by Etest
Escherichia coli [3] = experiment: Antimicrobial activity against Escherichia coli DH10B transformant harboring blaTEM-168 gene by broth microdilution method
Escherichia coli [4] = experiment: Antimicrobial activity against Escherichia coli DH10B transformant harboring blaTEM-168 gene by Etest
Escherichia coli [5] = experiment: Antimicrobial activity against Escherichia coli NO8-1503 harboring blaTEM-168 gene by Etest in presence of clavulanic acid
Escherichia coli [6] = experiment: Antimicrobial activity against Escherichia coli DH10B transformant harboring blaTEM-168 gene by Etest in presence of clavulanic acid
Escherichia coli [7] = experiment: Antimicrobial activity against Escherichia coli DH10B by Etest in presence of clavulanic acid
Escherichia coli [8] = experiment: Antimicrobial activity against Escherichia coli NO8-1503 harboring blaTEM-168 gene by disk diffusion method
Escherichia coli [9] = experiment: Antimicrobial activity against Escherichia coli NO8-1503 harboring blaTEM-168 gene by disk diffusion method in presence of clavulanic acid
Escherichia coli [10] = experiment: Antimicrobial activity against Escherichia coli NO8-1503 harboring blaTEM-168 gene by broth microdilution method in presence of clavulanic acid
Escherichia coli [11] = experiment: Antimicrobial activity against Escherichia coli DH10B transformant harboring blaTEM-168 gene by disk diffusion method
Escherichia coli [12] = experiment: Antimicrobial activity against Escherichia coli DH10B transformant harboring blaTEM-168 gene by disk diffusion method in presence of clavulanic acid
Escherichia coli [13] = experiment: Antimicrobial activity against Escherichia coli DH10B by disk diffusion method
Escherichia coli [14] = experiment: Antimicrobial activity against Escherichia coli DH10B by disk diffusion method in presence of clavulanic acid
Escherichia coli [15] = experiment: Antimicrobial activity against Escherichia coli DH10B by broth microdilution method
Escherichia coli [16] = experiment: Antimicrobial activity against Escherichia coli DH10B by broth microdilution method in presence of clavulanic acid
Escherichia coli [17] = experiment: Antimicrobial activity against Escherichia coli DH10B by Etest
Escherichia coli [18] = experiment: Antimicrobial activity against Escherichia coli DH10B transformant harboring blaTEM-168 gene by broth microdilution method in presence of clavulanic acid
Escherichia coli [19] = experiment: Antimicrobial activity against Escherichia coli NO8-1503 harboring blaTEM-168 gene by Etest in presence of Tazobactam
Escherichia coli [20] = experiment: Antimicrobial activity against Escherichia coli DH10B transformant harboring blaTEM-168 gene by Etest in presence of Tazobactam
Escherichia coli [21] = experiment: Antimicrobial activity against Escherichia coli DH10B by Etest in presence of Tazobactam

Compound `CO/N=C(\C(=O)N[C@@H]1C(=O)N2C(C(=O)[O-])=C(C[N+]3(C)CCCC3)CS[C@H]12)c1csc(N)n1` has an MIC (Escherichia coli [1]) of 8 µg/mL (≈ 16.6 µM), an MIC (Escherichia coli [2]) of 2 µg/mL (≈ 4.16 µM) and an MIC (Escherichia coli [3]) of 4 µg/mL (≈ 8.32 µM). For the same compound, the MIC (Escherichia coli [4]) was 2 µg/mL (≈ 4.16 µM).

Work on `CC1(C)S[C@@H]2[C@H](NC(=O)[C@H](N)c3ccc(O)cc3)C(=O)N2[C@H]1C(=O)O` [AMOXICILLIN] yielded an MIC (Escherichia coli [5]) of 32 µg/mL, an MIC (Escherichia coli [6]) of 64 µg/mL and an MIC (Escherichia coli [7]) of 3 µg/mL.

For `CO/N=C(\C(=O)N[C@@H]1C(=O)N2C(C(=O)O)=C(COC(C)=O)CS[C@H]12)c1csc(N)n1` [CEFOTAXIME], the “inhibition zone (IZ)” value (Escherichia coli [8]) was 23 mm, the “inhibition zone (IZ)” value (Escherichia coli [9]) was 24 mm and the MIC (Escherichia coli [1]) was at most 0.25 µg/mL. For the same compound, the MIC (Escherichia coli [10]) was at most 0.12 µg/mL, the MIC (Escherichia coli [2]) was 0.25 µg/mL (≈ 0.549 µM) and the MIC (Escherichia coli [5]) was 0.094 µg/mL. For the same compound, the “inhibition zone (IZ)” value (Escherichia coli [11]) was 26 mm, the “inhibition zone (IZ)” value (Escherichia coli [12]) was 30 mm and the MIC (Escherichia coli [4]) was 0.25 µg/mL (≈ 0.549 µM). The MIC (Escherichia coli [6]) was 0.094 µg/mL, the “inhibition zone (IZ)” value (Escherichia coli [13]) was 29 mm and the “inhibition zone (IZ)” value (Escherichia coli [14]) was 33 mm. For the same compound, the MIC (Escherichia coli [15]) was at most 0.25 µg/mL, the MIC (Escherichia coli [16]) was at most 0.12 µg/mL and the MIC (Escherichia coli [17]) was under 0.25 µg/mL. The MIC (Escherichia coli [7]) was 0.094 µg/mL.

`CO[C@@]1(NC(=O)Cc2cccs2)C(=O)N2C(C(=O)O)=C(COC(N)=O)CS[C@@H]21` [CEFOXITIN] gave an MIC (Escherichia coli [2]) of 12 µg/mL (≈ 28.1 µM), an MIC (Escherichia coli [4]) of 6 µg/mL (≈ 14 µM) and an MIC (Escherichia coli [17]) of 8 µg/mL (≈ 18.7 µM).

For `COCC1=C(C(=O)O)N2C(=O)[C@@H](NC(=O)/C(=N\OC)c3csc(N)n3)[C@H]2SC1` [CEFPODOXIME], the “inhibition zone (IZ)” value (Escherichia coli [8]) was 20 mm, the “inhibition zone (IZ)” value (Escherichia coli [9]) was 15 mm and the MIC (Escherichia coli [1]) was 8 µg/mL (≈ 18.7 µM). For the same compound, the MIC (Escherichia coli [10]) was 0.5 µg/mL, the “inhibition zone (IZ)” value (Escherichia coli [11]) was 20 mm and the “inhibition zone (IZ)” value (Escherichia coli [12]) was 16 mm. For the same compound, the MIC (Escherichia coli [3]) was 4 µg/mL (≈ 9.36 µM), the MIC (Escherichia coli [18]) was 0.25 µg/mL and the “inhibition zone (IZ)” value (Escherichia coli [13]) was 27 mm. The “inhibition zone (IZ)” value (Escherichia coli [14]) was 21 mm, the MIC (Escherichia coli [15]) was 1 µg/mL (≈ 2.34 µM) and the MIC (Escherichia coli [16]) was at most 0.125 µg/mL.

With `CC(C)(O/N=C(\C(=O)N[C@@H]1C(=O)N2C(C(=O)[O-])=C(C[n+]3ccccc3)CS[C@H]12)c1csc(N)n1)C(=O)O` [CEFTAZIDIME] the “inhibition zone (IZ)” value (Escherichia coli [8]) was 8 mm, the “inhibition zone (IZ)” value (Escherichia coli [9]) was 11 mm and the MIC (Escherichia coli [1]) was 4 µg/mL (≈ 7.32 µM). The MIC (Escherichia coli [10]) was 2 µg/mL, the MIC (Escherichia coli [2]) was 3 µg/mL (≈ 5.49 µM) and the MIC (Escherichia coli [5]) was 0.75 µg/mL. The “inhibition zone (IZ)” value (Escherichia coli [11]) was 8 mm, the “inhibition zone (IZ)” value (Escherichia coli [12]) was 10 mm and the MIC (Escherichia coli [3]) was 4 µg/mL (≈ 7.32 µM). It also gave an MIC (Escherichia coli [18]) of 1 µg/mL, an MIC (Escherichia coli [4]) of 3 µg/mL (≈ 5.49 µM) and an MIC (Escherichia coli [6]) of 1 µg/mL. For the same compound, the “inhibition zone (IZ)” value (Escherichia coli [13]) was 16 mm, the “inhibition zone (IZ)” value (Escherichia coli [14]) was 18 mm and the MIC (Escherichia coli [15]) was at most 0.25 µg/mL. It also gave an MIC (Escherichia coli [16]) of 0.25 µg/mL, an MIC (Escherichia coli [17]) of 1 µg/mL (≈ 1.83 µM) and an MIC (Escherichia coli [7]) of 0.38 µg/mL.

With `CCN1CCN(C(=O)N[C@@H](C(=O)N[C@@H]2C(=O)N3[C@@H]2SC(C)(C)[C@@H]3C(=O)O)c2ccccc2)C(=O)C1=O` [PIPERACILLIN] the MIC (Escherichia coli [19]) was over 256 µg/mL, the MIC (Escherichia coli [20]) was over 256 µg/mL and the MIC (Escherichia coli [21]) was 1.5 µg/mL.
